{"source": "patent US20230285339A1", "about": "“THERAPIES FOR TREATING AML AND USES OF RARA AGONISTS, HYPOMETHYLATING AGENTS, AND BCL-2 INHIBITORS” (Syros Pharmaceuticals, Inc., priority 2020, published 2023)", "test_system": "AML samples", "assay": "Beat AML ex vivo venetoclax sensitivity, proliferation assay on AML patient samples (AUC and IC50)", "format": "cell-based, human", "description": "Venetoclax sensitivity in BeatAML: The BeatAML dataset a/so included ex vivo sensitivity analysis for a panel of 121 inhibitors, including venetoclax, in a proliferation assay on 248 of the AML samples measured by area under the curve (AUC) and IC50. Only some of the patient samples were queried for each inhibitor. Of the samples with at least 40% blasts, 90 were tested for venetoclax ex vivo sensitivity. To define the best possible association of gene expression with venetoclax AUC, we performed a logistic regression model with lasso regularization to predict venetoclax AUC from the expression of all expressed genes using the expression matrix quantile normalized with the TCGA dataset. The R package glmnet was used as described above in the section “Development of monocytic expression signature in TCGA.”\nTo define samples sensitive to venetoclax, we first identified an IC50 that could separate sensitive samples from insensitive samples, as follows. We consulted two references (Bogenberger et al., Oncotarget 8:107206-107222, 2017) and Ramsey et al. Cancer Discovery 8:1566-1581, 2018) that defined sensitive AML cells in the range of 20-60 nM and resistant AML cells around 1 μM, and we choose 100 nM as a threshold that splits this range. We then mapped 100 nM IC50 values from the BeatAML venetoclax ex vivo assay to AUC, which is a more robust quantitative measure of sensitivity, by selecting the AUC below which all samples have an IC50<100 nM, which led to the AUC threshold of 130. At this threshold, we found 35 AML samples sensitive to venetoclax and 55 AML samples resistant to venetoclax.\nIn the methods, RARA gene expression in non-APL AML was evaluated in the TCGA and Beat AML RNA-seq datasets. AUC of cell viability curves were used to evaluate ex vivo sensitivity to compounds, including venetoclax, in the Beat AML dataset. A monocytic MES was developed using the expression of monocytic and primitive RNA markers in the TCGA dataset to analyze the monocytic phenotype. The MES used a logistic regression model with lasso regularization to distinguish FAB M4/5 (monocytic) from FAB M0/1/2 (primitive) using 10-fold cross-validation with 85% sensitivity and 80% specificity. The MES was then applied to the RNA-seq datasets from Beat AML and AML blasts from ND unfit AML patients in the ongoing tamibarotene-plus-azacitidine trial (NCT02807558), in which RARA-positive patients were determined by an RT-qPCR-based biomarker clinical trial assay (CTA). The MES, RARA expression, and venetoclax resistance-associated features were compared using Spearman's rho correlation; the association of the MES with the RARA biomarker and with IWG clinical responses in tamibarotene plus Aza treated patients was evaluated.", "data": [{"smiles": "CC1(C)CCC(CN2CCN(c3ccc(C(=O)NS(=O)(=O)c4ccc(NCC5CCOCC5)c([N+](=O)[O-])c4)c(Oc4cnc5[nH]ccc5c4)c3)CC2)=C(c2ccc(Cl)cc2)C1", "note": "[venetoclax]", "values": [{"measurement": "AML samples resistant", "setting": "All 90 samples, AUC threshold 130", "value": 55}, {"measurement": "Percent sensitive", "setting": "All patients (90 AML samples), AUC threshold 130", "value": 39, "unit": "%"}, {"measurement": "N sensitive", "setting": "All patients (90 AML samples, at least 40% blasts), sensitive = AUC below threshold of 130 (IC50<100 nM)", "value": 35}, {"measurement": "Percent sensitive", "setting": "Monocytic AML patients (MES>0.5), N total 44", "value": 11, "unit": "%"}, {"measurement": "N sensitive", "setting": "Primitive AML patients (MES<0.5), N total 46", "value": 30}, {"measurement": "Percent sensitive", "setting": "Primitive AML patients, N total 46", "value": 65, "unit": "%"}, {"measurement": "Percent sensitive", "setting": "RARA-high patients, N total 21", "value": 0, "unit": "%"}, {"measurement": "N sensitive", "setting": "RARA-low patients, N total 69", "value": 35}, {"measurement": "Percent sensitive", "setting": "RARA-low patients, N total 69", "value": 51, "unit": "%"}]}]}
